Read-outs that look alike come from different tables or passages of the source.
Legend:
PI3K p110β/p85α (human) = PI3K p110β/p85α (human) (Homo sapiens (Human), UniProt P42338); assay: PI3K p110β/p85α (human), non-radioactive assay (HTRF); assay type: biochemical; conditions: for fold selectivity for ATM over PI3Kbeta (IC50 PI3Kbeta / IC50 ATM): IC50 (ATM) at least 2000 times higher compared with IC50 (PI3Kbeta)
Protocol: PI3K p110β/p85α (Human), Non-radioactive Assay
(§1) PI3K p110β/p85α (human) was incubated in an assay buffer comprising 10 μM phosphati-dylinositol 4,5-bisphosphate and MgATP (concentration as necessary). The reaction was initiated by addition of MgATP solution. After an incubation time of 30 min at room temperature, the reaction was stopped by addition of a solution consisting of EDTA and biotinylated phosphatidylinositol 3,4,5-trisphosphate. Finally, the detection buffer, consisting of a europium-labelled anti-GST monoclonal antibody, a GST-labelled GRP1 PH domain and streptavidin allophycocyanin, was added. The plate was read out via homogeneous time-resolved fluorescence (HTRF) and the corresponding signals were evaluated via the formula HTRF=10000×(Em665nm/Em620nm).

[1] = system: phosphorylation of CHK2 (phospho-Thr68) in HCT116 cells; assay: Cellular pCHK2 assay: bleomycin-induced phosphorylation of CHK2 (phospho-Thr68), immunofluorescence high-content analysis; assay type: cell-based, human; conditions: Homo sapiens, HCT-116, 4 h, read-out: IC50 (pCHK2)
Outline: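 HCT116 cells in DMEM with 10% FCS, incubated overnight at 37° C, then given compounds (1 nM to 30 μM, 0.5% DMSO) together with 10 μM bleomycin. Phospho-Thr68 CHK2 immunostained and imaged by high-content imager; nuclei with pCHK2 above background counted, cell count from propidium iodide DNA stain.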

PI3K (p120γ) (human) = PI3K (p120γ) (human) (Homo sapiens (Human), UniProt P48736); assay: PI3K (p120γ) (human), non-radioactive assay (HTRF); assay type: biochemical; conditions: for IC50: read-out: IC50 (PI3Kgamma); for ratio IC50 (ATM) vs PI3Kgamma, selectivity with respect to PI3Kgamma: as printed:
Protocol: PI3K (p120γ) (Human), Non-radioactive Assay
as §1, with “(p120γ)” for “p110β/p85α”, “HTRF=10000×(Em665nm/Em620nm). • MgATP=magnesium 5′-O—[hydroxy({[(hydroxyphosphinato)oxy]phosphinato}oxy)phosphoryl]adenosine • MgCl2=magnesium dichloride • EGTA=ethylene glycol bis(aminoethyl ether) N,N,N′,N′-tetraacetic acid • Tween 20=polysorbate 20 Medicament/pharmaceutical Composition” for “HTRF=10000×(Em665nm/Em620nm).”

PI3K p110δ/p85α (human) = PI3K p110δ/p85α (human) (Homo sapiens (Human), UniProt O00329); assay: PI3K p110δ/p85α (human), non-radioactive assay (HTRF); assay type: biochemical; conditions: for IC50: read-out: IC50 (PI3Kdelta); for ratio IC50 (ATM) vs PI3Kdelta, selectivity with respect to PI3Kdelta: as printed:
Protocol: PI3K p110δ/p85α (Human), Non-radioactive Assay
as §1, with “p110δ/p85α” for “p110β/p85α”

mTOR (human) = mTOR (human) (Homo sapiens (Human), UniProt P42345); assay: mTOR (human) kinase assay, [γ-33P-ATP] filter assay; assay type: biochemical; conditions: for ratio IC50 (ATM) : IC50 (mTOR), selectivity with respect to mTOR: as printed:
Protocol: Furthermore, the effect, in particular inhibition, of other kinases and thus the selectivity of the compounds according to the invention can be determined with the aid of the following assay:
mTOR (human) was incubated with 50 mM HEPES pH 7.5, 1 mM EGTA, 0.01% Tween 20, 2 mg/ml of the substrate, 3 mM MnCl2 and [γ-^33P-ATP] (specific activity approximately 500 cpm/pmol, concentration as necessary). The reaction was initiated by addition of MgATP solution. After incubation at room temperature for 40 minutes, the reaction was stopped by addition of 3% phosphoric acid. 10 μl of the reaction solution were then transferred dropwise onto a P30 filtermat and washed three times for 5 min in 75 mM phosphoric acid and once in methanol, dried and evaluated by means of liquid scintillation counting.

PI3K p110α/p85α (human) = PI3K p110α/p85α (human) (Homo sapiens (Human), UniProt P42336); assay: PI3K p110α/p85α (human), non-radioactive assay (HTRF); assay type: biochemical; conditions: for IC50: read-out: IC50 (PI3Kalpha); for ratio IC50 (ATM) vs PI3Kalpha, selectivity with respect to PI3Kalpha: as printed:
Protocol: PI3K p110α/p85α (Human), Non-radioactive Assay
as §1, with “p110α/p85α” for “p110β/p85α”, “After” for “After an”, “incubation” for “incubation time of 30 min”, “temperature for 40 minutes,” for “temperature,”

[2] = molecular target: purified human recombinant ATM (ataxia telangiectasia mutated), full length (Homo sapiens (Human), UniProt Q13315); assay: ATM kinase assay - determination of ATM inhibition (IC50 ATM), TR-FRET; assay type: biochemical
purified human recombinant ATM (ataxia telangiectasia mutated), full length, sequence (Q13315 whole entry, change not shown): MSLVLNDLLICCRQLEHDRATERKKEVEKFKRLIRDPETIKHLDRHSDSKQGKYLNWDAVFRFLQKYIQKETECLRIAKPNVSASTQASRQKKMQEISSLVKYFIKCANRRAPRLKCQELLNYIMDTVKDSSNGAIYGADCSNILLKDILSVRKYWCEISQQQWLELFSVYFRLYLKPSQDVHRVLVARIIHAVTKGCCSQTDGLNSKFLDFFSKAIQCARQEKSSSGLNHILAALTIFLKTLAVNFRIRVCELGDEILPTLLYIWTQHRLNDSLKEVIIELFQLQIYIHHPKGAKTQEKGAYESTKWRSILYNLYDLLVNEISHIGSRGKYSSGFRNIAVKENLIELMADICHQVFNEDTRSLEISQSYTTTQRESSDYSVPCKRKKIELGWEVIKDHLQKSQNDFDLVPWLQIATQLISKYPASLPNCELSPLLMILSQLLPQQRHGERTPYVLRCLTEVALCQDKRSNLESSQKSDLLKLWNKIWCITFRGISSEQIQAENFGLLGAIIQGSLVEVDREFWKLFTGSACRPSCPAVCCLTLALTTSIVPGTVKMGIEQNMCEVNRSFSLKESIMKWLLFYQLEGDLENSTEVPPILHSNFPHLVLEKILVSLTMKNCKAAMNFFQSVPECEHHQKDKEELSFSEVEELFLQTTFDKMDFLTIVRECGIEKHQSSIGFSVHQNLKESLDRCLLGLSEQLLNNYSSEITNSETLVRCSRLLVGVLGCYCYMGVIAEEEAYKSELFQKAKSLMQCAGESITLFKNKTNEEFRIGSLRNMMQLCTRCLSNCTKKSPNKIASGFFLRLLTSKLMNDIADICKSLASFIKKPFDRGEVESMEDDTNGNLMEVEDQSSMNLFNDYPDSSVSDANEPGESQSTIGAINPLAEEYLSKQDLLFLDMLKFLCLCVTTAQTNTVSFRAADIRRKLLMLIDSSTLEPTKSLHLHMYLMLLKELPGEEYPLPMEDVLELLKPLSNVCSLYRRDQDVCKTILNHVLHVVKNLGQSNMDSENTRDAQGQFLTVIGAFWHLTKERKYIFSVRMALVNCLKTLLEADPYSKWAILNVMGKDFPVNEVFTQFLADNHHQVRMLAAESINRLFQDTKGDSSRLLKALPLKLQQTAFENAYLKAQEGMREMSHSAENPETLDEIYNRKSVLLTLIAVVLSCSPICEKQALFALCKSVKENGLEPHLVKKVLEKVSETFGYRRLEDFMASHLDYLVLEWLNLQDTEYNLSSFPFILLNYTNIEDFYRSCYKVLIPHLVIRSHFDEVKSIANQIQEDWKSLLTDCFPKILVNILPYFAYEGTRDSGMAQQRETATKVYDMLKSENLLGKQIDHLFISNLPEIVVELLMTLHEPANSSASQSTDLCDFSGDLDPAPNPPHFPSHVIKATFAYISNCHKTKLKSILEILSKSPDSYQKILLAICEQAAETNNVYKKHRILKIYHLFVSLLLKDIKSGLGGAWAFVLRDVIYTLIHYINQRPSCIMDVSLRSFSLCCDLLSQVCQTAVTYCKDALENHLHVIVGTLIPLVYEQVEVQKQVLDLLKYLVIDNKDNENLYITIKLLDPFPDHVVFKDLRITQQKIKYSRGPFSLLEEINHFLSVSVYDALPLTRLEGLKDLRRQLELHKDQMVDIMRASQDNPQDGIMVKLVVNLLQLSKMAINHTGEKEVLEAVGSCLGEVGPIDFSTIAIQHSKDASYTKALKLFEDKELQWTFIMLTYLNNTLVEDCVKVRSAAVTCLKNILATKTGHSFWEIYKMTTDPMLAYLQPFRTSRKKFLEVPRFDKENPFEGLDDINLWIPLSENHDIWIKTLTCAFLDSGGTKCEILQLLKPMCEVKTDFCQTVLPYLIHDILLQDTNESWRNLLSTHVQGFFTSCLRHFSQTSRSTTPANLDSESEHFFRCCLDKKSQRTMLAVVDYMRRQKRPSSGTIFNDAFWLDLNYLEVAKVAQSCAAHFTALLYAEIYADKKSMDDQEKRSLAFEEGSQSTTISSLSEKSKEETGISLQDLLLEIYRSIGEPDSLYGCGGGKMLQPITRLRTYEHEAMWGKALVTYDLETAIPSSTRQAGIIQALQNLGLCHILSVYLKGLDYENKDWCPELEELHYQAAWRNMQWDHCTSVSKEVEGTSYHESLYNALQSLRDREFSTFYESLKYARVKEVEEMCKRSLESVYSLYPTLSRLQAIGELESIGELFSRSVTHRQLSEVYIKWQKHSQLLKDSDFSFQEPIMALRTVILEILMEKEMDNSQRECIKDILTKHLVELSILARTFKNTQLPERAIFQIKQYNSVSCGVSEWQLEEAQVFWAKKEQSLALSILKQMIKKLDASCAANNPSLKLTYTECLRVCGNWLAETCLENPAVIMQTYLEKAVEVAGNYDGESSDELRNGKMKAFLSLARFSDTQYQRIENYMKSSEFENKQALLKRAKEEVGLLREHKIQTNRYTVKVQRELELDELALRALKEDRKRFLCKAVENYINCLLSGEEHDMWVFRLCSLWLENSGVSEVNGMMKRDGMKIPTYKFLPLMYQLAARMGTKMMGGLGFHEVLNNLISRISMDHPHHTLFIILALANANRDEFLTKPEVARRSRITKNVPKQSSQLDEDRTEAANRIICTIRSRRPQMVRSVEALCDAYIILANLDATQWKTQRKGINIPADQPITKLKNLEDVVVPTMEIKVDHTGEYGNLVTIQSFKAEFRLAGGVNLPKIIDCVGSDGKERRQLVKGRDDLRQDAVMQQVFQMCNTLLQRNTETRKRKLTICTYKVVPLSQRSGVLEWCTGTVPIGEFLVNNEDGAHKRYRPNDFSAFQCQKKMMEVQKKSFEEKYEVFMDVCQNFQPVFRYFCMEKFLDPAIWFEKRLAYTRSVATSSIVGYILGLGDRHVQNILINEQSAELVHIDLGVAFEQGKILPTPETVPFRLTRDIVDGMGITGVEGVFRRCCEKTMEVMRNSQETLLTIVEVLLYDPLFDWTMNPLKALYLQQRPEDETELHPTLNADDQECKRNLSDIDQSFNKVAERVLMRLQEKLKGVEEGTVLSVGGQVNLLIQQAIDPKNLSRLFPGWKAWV
Outline: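 Full-length enzyme, expressed in a mammalian cell line, pre-incubated 15 min with inhibitor in 25 mM HEPES pH 8.0, 10 mM Mg(CH3COO)2, 1 mM MnCl2, 0,1% BSA, 0,01% Brij 35, 5 mM DTT. Full-length cmyc-p53 (Sf21-expressed) and ATP then added, 30-35 min at 22° C. EDTA stop; p53 S15 phosphorylation read by TR-FRET antibodies.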

PI3K p110β/p85α (human), sequence (P42338 whole entry): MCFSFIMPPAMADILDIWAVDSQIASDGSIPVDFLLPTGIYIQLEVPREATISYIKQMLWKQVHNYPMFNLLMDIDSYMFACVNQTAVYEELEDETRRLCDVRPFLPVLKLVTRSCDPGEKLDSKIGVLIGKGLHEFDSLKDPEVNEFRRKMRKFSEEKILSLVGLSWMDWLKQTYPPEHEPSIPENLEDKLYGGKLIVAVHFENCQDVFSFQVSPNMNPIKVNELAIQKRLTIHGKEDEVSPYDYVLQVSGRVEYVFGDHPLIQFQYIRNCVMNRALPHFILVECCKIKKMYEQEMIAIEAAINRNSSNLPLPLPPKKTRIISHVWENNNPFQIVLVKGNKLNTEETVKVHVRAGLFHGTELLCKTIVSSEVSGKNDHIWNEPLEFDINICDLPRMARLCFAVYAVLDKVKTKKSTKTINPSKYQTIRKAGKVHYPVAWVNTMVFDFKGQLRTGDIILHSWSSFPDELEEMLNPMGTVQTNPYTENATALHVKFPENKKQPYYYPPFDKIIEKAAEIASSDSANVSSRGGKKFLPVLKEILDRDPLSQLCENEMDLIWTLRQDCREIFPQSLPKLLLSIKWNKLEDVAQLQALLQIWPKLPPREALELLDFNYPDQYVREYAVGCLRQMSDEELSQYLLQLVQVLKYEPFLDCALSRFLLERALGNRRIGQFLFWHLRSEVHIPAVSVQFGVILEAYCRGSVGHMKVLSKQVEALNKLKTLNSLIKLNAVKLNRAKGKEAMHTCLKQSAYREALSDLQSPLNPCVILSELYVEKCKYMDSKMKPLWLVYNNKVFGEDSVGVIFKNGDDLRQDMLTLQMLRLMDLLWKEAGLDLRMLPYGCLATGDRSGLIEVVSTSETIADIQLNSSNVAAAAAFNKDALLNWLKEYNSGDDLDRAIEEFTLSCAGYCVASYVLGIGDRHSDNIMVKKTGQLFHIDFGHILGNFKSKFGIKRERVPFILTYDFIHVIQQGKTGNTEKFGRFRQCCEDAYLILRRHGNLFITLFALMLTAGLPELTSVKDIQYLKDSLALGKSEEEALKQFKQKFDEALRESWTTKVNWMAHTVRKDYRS
PI3K p110β/p85α (human), sequence (P27986 whole entry partner): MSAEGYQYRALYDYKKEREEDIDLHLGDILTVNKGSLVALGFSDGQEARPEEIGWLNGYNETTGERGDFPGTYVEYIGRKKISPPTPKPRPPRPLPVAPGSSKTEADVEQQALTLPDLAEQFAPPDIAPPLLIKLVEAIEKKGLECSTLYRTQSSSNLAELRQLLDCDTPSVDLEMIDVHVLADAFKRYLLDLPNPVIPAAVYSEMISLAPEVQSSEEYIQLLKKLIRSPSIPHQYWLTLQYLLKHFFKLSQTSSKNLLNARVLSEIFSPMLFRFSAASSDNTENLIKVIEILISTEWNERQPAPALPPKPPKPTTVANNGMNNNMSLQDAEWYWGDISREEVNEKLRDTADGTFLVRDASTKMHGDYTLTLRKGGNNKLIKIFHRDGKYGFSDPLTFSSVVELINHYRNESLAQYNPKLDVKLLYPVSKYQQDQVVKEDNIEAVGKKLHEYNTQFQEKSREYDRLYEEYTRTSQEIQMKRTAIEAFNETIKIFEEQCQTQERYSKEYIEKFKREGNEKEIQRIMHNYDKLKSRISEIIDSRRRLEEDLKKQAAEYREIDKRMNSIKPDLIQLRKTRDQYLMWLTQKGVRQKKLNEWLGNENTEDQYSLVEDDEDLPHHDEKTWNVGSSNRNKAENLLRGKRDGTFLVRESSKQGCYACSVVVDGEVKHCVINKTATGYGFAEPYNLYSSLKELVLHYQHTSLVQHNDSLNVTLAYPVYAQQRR

| SMILES | IC50 (PI3K p110β/p85α (human); read-out: IC50 (PI3Kbeta)) [nM] | IC50 [1] [nM] | IC50 (PI3K (p120γ) (human)) [nM] | IC50 (PI3K p110δ/p85α (human)) [nM] | IC50 (mTOR (human)) [nM] | IC50 (PI3K p110α/p85α (human)) [nM] | IC50 [2] [nM] | IC50 ([2]; 10 μM ATP, substrate p53) [nM] | fold selectivity for ATM over PI3Kbeta (IC50 PI3Kbeta / IC50 ATM) (PI3K p110β/p85α (human)) | ratio IC50 (ATM) vs PI3Kgamma, selectivity with respect to PI3Kgamma (PI3K (p120γ) (human)) | ratio IC50 (ATM) vs PI3Kdelta, selectivity with respect to PI3Kdelta (PI3K p110δ/p85α (human)) | ratio IC50 (ATM) : IC50 (mTOR), selectivity with respect to mTOR (mTOR (human)) | IC50 (PI3K p110β/p85α (human)) [nM] | ratio IC50 (ATM) vs PI3Kalpha, selectivity with respect to PI3Kalpha (PI3K p110α/p85α (human)) |
| --- | --- | --- | --- | --- | --- | --- | --- | --- | --- | --- | --- | --- | --- | --- |
| COc1cc2ncc3c(c2cc1-c1cnn(C)c1)n(-c1cn(C)cn1)c(=O)n3C [compound 59, 7-Methoxy-3-methyl-1-(1-methyl-1H-imidazol-4-yl)-8-(1-methyl-1H-pyrazol-4-yl)-1,3-dihydroimidazo[4,5-c] quinolin-2-one] | > 30000 | 1000 to 2000 | > 30000 | > 30000 | > 30000 | > 30000 | < 10 | < 10 | – | – | – | – | – | – |
| COc1cc2ncc3c(c2cc1-c1cn[nH]c1)n(-c1c(F)cncc1F)c(=O)n3C [Compound Example 2, 1-(3,5-Difluoropyridin-4-yl)-7-methoxy-3-methyl-8-(1H-pyrazol-4-yl)-1,3-dihydro-imidazo[4,5-c]quinolin-2-one] | > 30000 | < 200 | > 30000 | > 30000 | > 5000 | > 30000 | < 1 | < 1 | – | – | – | – | – | – |
| [2H]C([2H])([2H])Oc1cncc(F)c1-n1c(=O)n(C)c2cnc3cc(OC)c(-c4cnn(C)c4)cc3c21 [compound 145, 1-[3-Fluoro-5-(trideuterio-methoxy)-4-pyridyl]-7-methoxy-3-methyl-8-(1-methylpyrazol-4-yl)imidazo-[4,5-c]quinolin-2-one] | – | 200 to 1000 | – | – | – | – | – | < 1 | at least 2000 times | at least 2000 times | at least 2000 times | at least 2000 times | – | – |
| COc1cc2ncc3c(c2cc1-c1cn[nH]c1)n(-c1cn(C)nc1C)c(=O)n3C [Example 3] | – | < 200 | > 30000 | > 30000 | > 5000 | > 30000 | < 1 | < 1 | – | – | – | – | > 30000 | – |
| COc1cc2ncc3c(c2cc1-c1cnn(C)c1)n(-c1ncc(C)cc1F)c(=O)n3C [Compound Example 27, 1-(3-Fluoro-5-methylpyridin-2-yl)-7-methoxy-3-methyl-8-(1-methyl-1H-pyrazol-4-yl)-1,3-dihydroimidazo[4,5-c] quinolin-2-one] | > 30000 | < 200 | > 30000 | > 30000 | > 30000 | > 30000 | < 1 | < 1 | – | – | – | – | – | – |
| COc1cc2ncc3c(c2cc1-c1cn(C)nc1C)n(-c1c(F)cncc1OC)c(=O)n3C [Compound Example 4, 8-(1,3-Dimethyl-1H-pyrazol-4-yl)-1-(3-fluoro-5-methoxy-pyridin-4-yl)-7-methoxy-3-methyl-1,3-dihydroimidazo-[4,5-c]quinolin-2-one] | > 30000 | < 200 | > 30000 | > 10000 | > 30000 | > 5000 | – | – | – | – | – | – | – | – |
| COc1cc2ncc3c(c2cc1-c1ccc2nc(C)[nH]c2c1)n(-c1c(F)cncc1OC)c(=O)n3C [compound 136, 1-(3-Fluoro-5-methoxy-pyridin-4-yl)-7-methoxy-3-methyl-8-(2-methyl-3H-benzoimidazol-5-yl)-1,3-dihydroimidazo[4,5-c]-quinolin-2-one] | – | < 200 | – | – | – | – | – | < 1 | at least 2000 times | at least 2000 times | – | – | – | – |
| COc1cc2ncc3c(c2cc1-c1cnn(C)c1)n(-c1ncc(OCS(C)(=O)=O)cc1F)c(=O)n3C [compound 201, 1-(3-Fluoro-5-methyl-sulfonylmethoxypyridin-2-yl)-7-methoxy-3-methyl-8-(1-methyl-1H-pyrazol-4-yl)-1,3-dihydroimidazo[4,5-c]-quinolin-2-one] | – | < 200 | – | – | – | – | – | < 1 | at least 2000 times | at least 2000 times | at least 2000 times | – | – | at least 2000 times |
| CCc1cncc(F)c1-n1c(=O)n(C)c2cnc3cc(OC)c(-c4cn[nH]n4)cc3c21 [compound 125, 1-(3-Ethyl-5-fluoropyridin-4-yl)-7-methoxy-3-methyl-8-(2H-1,2,3-triazol-4-yl)-1,3-dihydroimidazo[4,5-c] quinolin-2-one] | – | 200 to 1000 | – | – | – | – | – | < 1 | at least 2000 times | at least 2000 times | at least 2000 times | – | – | at least 2000 times |
| COc1cc2ncc3[nH]c(=O)n(-c4ncc(F)cc4F)c3c2cc1-c1cn(C)nc1C [compound 108, 1-(3,5-Difluoropyridin-2-yl)-8-(1,3-dimethyl-1H-pyrazol-4-yl)-7-methoxy-1,3-dihydroimidazo[4,5-c]-quinolin-2-one] | – | 200 to 1000 | – | – | – | – | – | < 1 | at least 2000 times | at least 2000 times | at least 2000 times | – | – | at least 2000 times |
| COc1cc2ncc3c(c2cc1-c1cnn(C)c1)n(-c1c(C)n[nH]c1C)c(=O)n3C [compound 118, 1-(3,5-Dimethyl-1H-pyrazol-4-yl)-7-methoxy-3-methyl-8-(1-methyl-1H-pyrazol-4-yl)-1,3-dihydroimidazo[4,5-c]-quinolin-2-one] | – | 200 to 1000 | – | – | – | – | – | < 10 | at least 2000 times | – | – | at least 2000 times | – | – |
